Measurements: US4180587A, “Ureylene phenylene anionic naphthalenesulfonic acids as complement inhibitors” (American Cyanamid Company, priority 1978, dated 1979)
Where two headings read alike, the source gives them in different places.

Legend:
whole complement = test: Complement Level Reduction Test: serum of dosed guinea pigs tested for whole complement by capillary tube assay; assay type: in vivo, guinea pig; conditions: intraperitoneal, 200 mg/kg
From the text: An active inhibitor protects C2 from C1 and C4; (ii) Test Code 035 (C3-C9 inhibitor)--This test determines the ability of the late components of human complement (C3-C9) to lyse EAC 142 in the presence of appropriate dilutions of the test compound. An active inhibitor protects EAC 142 from lysis by human C3-C9; (iii) Test Code 036 (C-Shunt inhibitor)--In this test human erythrocytes rendered fragile are lysed in autologous serum via the shunt pathway activated by cobra venom factor in the presence of appropriate dilutions of the test compound. Inhibition of the shunt pathway results in failure of lysis; (iv) Forssman Vasculitis Test--Here, the well known complement dependent lesion, Forssman vasculitis, is produced in guinea pigs by intradermal injection of rabbit anti-Forssman antiserum. The lesion is measured in terms of diameter, edema and hemorrhage and the extent to which a combined index of these is inhibited by prior intraperitoneal injection of the test compound at 200 mg/kg is then reported, unless otherwise stated; (v) Forssman Shock Test--Lethal shock is produced in guinea pigs by an i.v. injection of anti-Forssman antiserum and the harmonic mean death time of treated guinea pigs is compared with that of simultaneous controls; (vi) Complement Level Reduction Test--In this test, the above dosed guinea pigs, or others, are bled for serum and the complement level is determined in undiluted serum by the capillary tube method of U.S. Pat. No. 3,876,376 and compared to undosed control guinea pigs; and (vii) Cap 50 Test--Here, appropriate amounts of the test compound are added to a pool of guinea pig serum in vitro, after which the undiluted serum capillary tube assay referred to above is run. The concentration of compound inhibiting 50% is reported.
With reference to Table I, guinea pigs weighing about 300 g were dosed intravenously (i.v.) or intraperitoneally (i.p.) with 200 mg/kg of the test compound dissolved in saline and adjusted to pH 7-8. […] The serum was tested for whole complement using the capillary tube assay. Percent inhibition was calculated by comparison with simultaneous controls. The results appear in Table I together with results of tests code 026, 035, 036, Cap 50, % inhibition and Forssman shock.

shunt pathway = test: Test Code 036 (C-Shunt inhibitor): lysis of fragile human erythrocytes in autologous serum via shunt pathway activated by cobra venom factor; assay type: cell-based; conditions: activity in wells, twofold serial dilution
From the text: (§1) An active inhibitor protects C2 from C1 and C4; (ii) Test Code 035 (C3-C9 inhibitor)--This test determines the ability of the late components of human complement (C3-C9) to lyse EAC 142 in the presence of appropriate dilutions of the test compound. An active inhibitor protects EAC 142 from lysis by human C3-C9; (iii) Test Code 036 (C-Shunt inhibitor)--In this test human erythrocytes rendered fragile are lysed in autologous serum via the shunt pathway activated by cobra venom factor in the presence of appropriate dilutions of the test compound. Inhibition of the shunt pathway results in failure of lysis; (iv) Forssman Vasculitis Test--Here, the well known complement dependent lesion, Forssman vasculitis, is produced in guinea pigs by intradermal injection of rabbit anti-Forssman antiserum. […]

human C1 = test: Test Code 026 (C1 inhibitor): ability of activated human C1 to destroy fluid phase human C2 in the presence of C4; assay type: biochemical; conditions: activity in wells, twofold serial dilution; higher well number indicates higher activity
From the text: as §1

[1] = test system: late components of human complement (C3-C9); test: Test Code 035 (C3-C9 inhibitor): lysis of EAC 142 by late components of human complement; assay type: cell-based; conditions: activity in wells, twofold serial dilution; higher well number indicates higher activity
From the text: as §1

complement system = conditions: reported in literature; cited from earlier work
[2] = reported in literature; cited from earlier work
[3] = test system: total hemolytic complement activity; conditions: in vivo; judged by reduction in total hemolytic complement activity; cited from earlier work
[4] = test system: total hemolytic complement activity; conditions: in vitro; judged by reduction in total hemolytic complement activity; cited from earlier work

Compound: Cc1ccc(C(=O)Nc2cc(C(=O)Nc3ccc(S(=O)(=O)[O-])c4cc(S(=O)(=O)[O-])cc(S(=O)(=O)[O-])c34)ccc2C)cc1NC(=O)Nc1cc(C(=O)Nc2cc(C(=O)Nc3ccc(S(=O)(=O)[O-])c4cc(S(=O)(=O)[O-])cc(S(=O)(=O)[O-])c34)ccc2C)ccc1C.[Na+].[Na+].[Na+].[Na+].[Na+].[Na+] [Example 3, 8,8'-[Ureylenebis[(4-methyl-3,1-phenylenecarbonyl)imino(4-methyl-3,1-phenylenecarbonyl)imino]]di-1,3,5-naphthalenetrisulfonic acid, hexasodium salt]
- In Vivo Activity (Guinea Pig) % Inhibition (whole complement; 30 minutes): -58%
- In Vivo Activity (Guinea Pig) % Inhibition (whole complement; 60 minutes): -65%
- In Vivo Activity (Guinea Pig) % Inhibition (whole complement; 120 minutes): -77%
- Shunt Inhibition 036 Wells (shunt pathway): N
- C1 026 Wells (human C1): +3 Wells
- C-Late 035 Wells [1]: +3 Wells

Compound: Cc1ccc(C(=O)Nc2ccc(S(=O)(=O)O)c3cc(S(=O)(=O)O)cc(S(=O)(=O)O)c23)cc1NC(=O)c1cccc(NC(=O)Nc2cccc(C(=O)Nc3cc(C(=O)Nc4ccc(S(=O)(=O)O)c5cc(S(=O)(=O)O)cc(S(=O)(=O)O)c45)ccc3C)c2)c1 [Suramin]
- In Vivo Activity (Guinea Pig) % Inhibition (whole complement; 30 minutes): -9%
- In Vivo Activity (Guinea Pig) % Inhibition (whole complement; 60 minutes): -17%
- In Vivo Activity (Guinea Pig) % Inhibition (whole complement; 120 minutes): -44%
- C1 026 Wells (human C1): +4 Wells
- C-Late 035 Wells [1]: +2 Wells
- anticomplementary effect / activity as complement inhibitor (complement system): moderately active as a complement inhibitor

Compound: Nc1ccc2cc(S(=O)(=O)[O-])cc(O)c2c1N=Nc1ccc(NC(=O)Nc2ccc(N=Nc3c(N)ccc4cc(S(=O)(=O)[O-])cc(O)c34)c(S(=O)(=O)[O-])c2)cc1S(=O)(=O)[O-].[Na+].[Na+].[Na+].[Na+] [chlorazol fast pink, 3,3'-ureylenebis[6-(2-amino-8-hydroxy-6-sulfo-1-naphthylazo)benzenesulfonic acid], tetrasodium salt]
- anticomplementary effect / activity as complement inhibitor (complement system): anticomplementary effect

Compound: NCCCCCC(=O)O [epsilon-aminocaproic acid]
- treatment of hereditary angioneurotic edema [2]: used with success

Compound: NC[C@H]1CC[C@H](C(=O)O)CC1 [tranexamic acid]
- treatment of hereditary angioneurotic edema [2]: used with success

Compound: heparin
- anticomplementary effect / activity as complement inhibitor (complement system): anticomplementary effect

Compound: pentosan-polysulfoester
- anticomplementary activity on human serum [3]: anticomplementary activity
- anticomplementary activity on human serum [4]: anticomplementary activity
